Read-outs that look alike come from different tables or passages of the source.
Legend:
CF-1 mice = assay: Observation for clinical signs in 6 Hz studies; assay type: in vivo, mouse; details: Compound A 8 mg/kg PO, Study 3A
Procedure: Any qualitative changes from normal behavior were recorded.

[1] = Plasma and brain concentrations in 6 Hz studies (LC-MS/MS); assay type: in vivo, mouse
Procedure: Sample Collection and Preparation: Mice were anesthetized by isoflurane inhalation (TECH-018) until they reached a surgical plane of anesthesia. Then a syringe (1 mL syringe with a 22 gauge needle) was inserted under the sternum into the heart (TECH-031). Approximately 0.5 mL of blood was collected, deposited into a K2EDTA tube, and stored on ice. Animals were then euthanized by cervical dislocation (TECH-018). Brains were removed, placed into a pre-weighed vial, and snap frozen on dry ice. At the end of the sample collection, blood was centrifuged at 4000 rpm for 10 minutes at 4° C., and the plasma pipetted into a labeled tube. All samples were stored in a −80° C. freezer until bioanalysis (8 days after sample collection for Studies 3A and 3B; 20 days after sample collection for Study 3C).
Plasma and Tissue Sample Analysis: Bead mill polypropylene tubes containing weighed brain tissues were thawed at room temperature and 3 mL of homogenization solvent (water:acetonitrile (1:1, v:v)) was added. The tubes were placed in the Bead Mill Homogenizer (Bead Ruptor Elite Model, Omni International) and shaken at a velocity of 3.70 m/s for a single cycle lasting 30 seconds. The homogenized tube was centrifuged at 4000 rpm for 20 minutes, the supernatant was transferred to a 1.5 mL Eppendorf tube, and stored frozen at −80° C. until analysis. All samples including plasma and brain homogenate extracts (including calibration and quality control (QC) samples prepared in K2EDTA rat plasma), were extracted by protein precipitation. […] The samples in the 1.5 mL tubes were vortex mixed and then centrifuged for 20 minutes at 13,000 rpm. Fifty microliters of the supernatant was mixed with 150 μL of water/acetonitrile (1:1) in a 96 well plate which was centrifuged post mixing for 20 minutes at 4000 rpm, and was then ready for analysis by liquid chromatography tandem mass spectrometry (LC-MS/MS).
Samples were analyzed by a research-grade LC-MS/MS method as follows: […]

[2] = Plasma and brain concentrations after MES testing (UHPLC-ESI-MS/MS); details: CF-1, mouse, in vivo, po;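 also: brain and plasma were sampled from mice right after the efficacy test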

Cc1cc(N2CCc3cc(F)ccc3C2)cc(C)c1NC(=O)CC(C)(C)C [Compound A, N-[4-(6-fluoro-3,4-dihydro-1H-isoquinolin-2-yl)-2,6-dimethylphenyl]-3,3-dimethylbutanamide]
brain concentration of the one animal that showed tremor and was cold to the touch (CF-1 mice): 1650 nM | plasma concentration of the one animal that showed tremor and was cold to the touch (CF-1 mice): 1160 nM | fold higher brain concentration of Compound A in Study 3C compared to Study 3B ([1]; 1 hour post dosing): 11 fold | fold higher plasma concentration of Compound A in Study 3C compared to Study 3B ([1]; 1 hour post dosing): 12 fold | concentration at 1 h ([1]; CF-1, mouse, brain, po, 1 mg/kg, Study 3A, Compound A 1 mg/kg PO, 1 h, read-out: Brain): 90 nM | concentration at 1 h ([1]; CF-1, mouse, brain, po, 3 mg/kg, Study 3A, Compound A 3 mg/kg PO, 1 h, read-out: Brain): 260 nM | concentration at 1 h ([1]; CF-1, mouse, brain, po, 4 mg/kg, Study 3B, Compound A 4 mg/kg PO 1 h alone, read-out: Brain): 30 ± 20 nM | concentration at 1 h ([1]; CF-1, mouse, brain, po, 4 mg/kg, Study 3C, Compound A 4 mg/kg PO 1 h alone, read-out: Brain): 410 ± 230 nM | concentration at 1 h ([1]; CF-1, mouse, brain, po, 5 mg/kg, Study 3A, Compound A 5 mg/kg PO, 1 h, read-out: Brain): 290 nM | concentration at 1 h ([1]; CF-1, mouse, brain, po, 8 mg/kg, Study 3A, Compound A 8 mg/kg PO, 1 h, read-out: Brain): 700 ± 410 nM | concentration at 1 h ([1]; CF-1, mouse, plasma, po, 1 mg/kg, Study 3A, Compound A 1 mg/kg PO, 1 h, read-out: Plasma): 40 nM | concentration at 1 h ([1]; CF-1, mouse, plasma, po, 3 mg/kg, Study 3A, Compound A 3 mg/kg PO, 1 h, read-out: Plasma): 150 nM | concentration at 1 h ([1]; CF-1, mouse, plasma, po, 4 mg/kg, Study 3B, Compound A 4 mg/kg PO 1 h alone, read-out: Plasma): 14 ± 9 nM | concentration at 1 h ([1]; CF-1, mouse, plasma, po, 4 mg/kg, Study 3C, Compound A 4 mg/kg PO 1 h alone, read-out: Plasma): 167 ± 89.7 nM | concentration at 1 h ([1]; CF-1, mouse, plasma, po, 5 mg/kg, Study 3A, Compound A 5 mg/kg PO, 1 h, read-out: Plasma): 180 nM | concentration at 1 h ([1]; CF-1, mouse, plasma, po, 8 mg/kg, Study 3A, Compound A 8 mg/kg PO, 1 h, read-out: Plasma): 470 ± 290 nM | fold higher concentrations of Compound A in plasma and brain in Study 3C than in Study 3B ([1]; Compound A 4 mg/kg PO, 1 h): more than 10 fold | Plasma ([1]; Study 3A, Compound A 8 mg/kg PO, 1 h, 8 mg/kg): 0.47 µM | concentration at 1 h ([1]; Study 3A, Compound A 8 mg/kg PO, 1 h, 8 mg/kg, read-out: Brain): 700 nM | Plasma ([1]; Study 3B, Compound A 4 mg/kg PO 1 h alone, 4 mg/kg): 0.01 ± 0.01 µM | Plasma ([1]; Study 3B, Compound A 4 mg/kg PO 1 h alone, listed as Cmpd A, 4 mg/kg): 0.01 µM | concentration at 1 h ([1]; Study 3B, Compound A 4 mg/kg PO 1 h alone, listed as Cmpd A, 4 mg/kg, read-out: Brain): 30 nM | Plasma ([1]; Study 3C, Compound A 4 mg/kg PO 1 h alone, 4 mg/kg): 0.17 µM | concentration at 1 h ([1]; Study 3C, Compound A 4 mg/kg PO 1 h alone, 4 mg/kg, read-out: Brain): 410 nM | concentration at 1 h ([1]; mouse, brain, oral, Studies 3B+3C combined, analyte Compound A, 4 mg/kg PO + Levetiracetam 300 mg/kg IP, read-out: Brain): 210 nM | concentration at 1 h ([1]; mouse, brain, oral, Study 3B, analyte Compound A, 4 mg/kg PO + Levetiracetam 300 mg/kg IP, read-out: Brain): 40 nM | concentration at 1 h ([1]; mouse, brain, oral, Study 3C, analyte Compound A, 4 mg/kg PO + Levetiracetam 300 mg/kg IP, read-out: Brain): 383 nM | concentration at 1 h ([1]; mouse, brain, po, 4 mg/kg, Studies 3B+3C combined, Compound A 4 mg/kg PO 1 h alone, read-out: Brain): 220 nM | concentration at 1 h ([1]; mouse, brain, po, 4 mg/kg, Study 3B, Compound A 4 mg/kg PO 1 h alone, read-out: Brain): 30 ± 20 nM | concentration at 1 h ([1]; mouse, brain, po, 4 mg/kg, Study 3C, Compound A 4 mg/kg PO 1 h alone, read-out: Brain): 410 ± 230 nM | concentration at 1 h ([1]; mouse, plasma, oral, Studies 3B+3C combined, analyte Compound A, 4 mg/kg PO + Levetiracetam 300 mg/kg IP, read-out: Plasma): 90 nM | concentration at 1 h ([1]; mouse, plasma, oral, Study 3B, analyte Compound A, 4 mg/kg PO + Levetiracetam 300 mg/kg IP, read-out: Plasma): 20 nM | concentration at 1 h ([1]; mouse, plasma, oral, Study 3C, analyte Compound A, 4 mg/kg PO + Levetiracetam 300 mg/kg IP, read-out: Plasma): 170 nM | concentration at 1 h ([1]; mouse, plasma, po, 4 mg/kg, Studies 3B+3C combined, Compound A 4 mg/kg PO 1 h alone, read-out: Plasma): 100 nM | concentration at 1 h ([1]; mouse, plasma, po, 4 mg/kg, Study 3B, Compound A 4 mg/kg PO 1 h alone, read-out: Plasma): 14 ± 9 nM | concentration at 1 h ([1]; mouse, plasma, po, 4 mg/kg, Study 3C, Compound A 4 mg/kg PO 1 h alone, read-out: Plasma): 170 ± 90 nM | concentration at 0.5 h ([2]; 1 mg/kg, Concentration Brain, Compound A 1 mg/kg PO single dose, tissue collection 0.5 hr): 270 nM | concentration at 2 h ([2]; 1 mg/kg, Concentration Brain, Compound A 1 mg/kg PO single dose, tissue collection 2 hr): 190 nM | concentration at 0.5 h ([2]; 1 mg/kg, Concentration Brain, Compound A 1 mg/kg PO, 0.5 hr): 97.9 ng/g | concentration at 2 h ([2]; 1 mg/kg, Concentration Brain, Compound A 1 mg/kg PO, 2 hr): 70.2 ng/g | concentration at 0.5 h ([2]; 1 mg/kg, Concentration Plasma, Compound A 1 mg/kg PO single dose, tissue collection 0.5 hr): 130 nM | concentration at 2 h ([2]; 1 mg/kg, Concentration Plasma, Compound A 1 mg/kg PO single dose, tissue collection 2 hr): 100 nM | concentration at 0.5 h ([2]; 1 mg/kg, Concentration Plasma, Compound A 1 mg/kg PO, 0.5 hr): 48.9 ng/mL | concentration at 2 h ([2]; 1 mg/kg, Concentration Plasma, Compound A 1 mg/kg PO, 2 hr): 35.8 ng/mL | concentration at 0.5 h ([2]; 2 mg/kg, Concentration Brain, Compound A 2 mg/kg PO single dose, tissue collection 0.5 hr): 360 nM | concentration at 2 h ([2]; 2 mg/kg, Concentration Brain, Compound A 2 mg/kg PO single dose, tissue collection 2 hr): 210 nM | concentration at 0.5 h ([2]; 2 mg/kg, Concentration Brain, Compound A 2 mg/kg PO, 0.5 hr): 132 ng/g | concentration at 2 h ([2]; 2 mg/kg, Concentration Brain, Compound A 2 mg/kg PO, 2 hr): 75.8 ng/g | concentration at 0.5 h ([2]; 2 mg/kg, Concentration Plasma, Compound A 2 mg/kg PO single dose, tissue collection 0.5 hr): 220 nM | concentration at 2 h ([2]; 2 mg/kg, Concentration Plasma, Compound A 2 mg/kg PO single dose, tissue collection 2 hr): 130 nM | concentration at 0.5 h ([2]; 2 mg/kg, Concentration Plasma, Compound A 2 mg/kg PO, 0.5 hr): 80.7 ng/mL | concentration at 2 h ([2]; 2 mg/kg, Concentration Plasma, Compound A 2 mg/kg PO, 2 hr): 46.7 ng/mL | concentration at 0.5 h ([2]; 4 mg/kg, Concentration Brain, Compound A 4 mg/kg PO single dose, tissue collection 0.5 hr): 640 nM | concentration at 2 h ([2]; 4 mg/kg, Concentration Brain, Compound A 4 mg/kg PO single dose, tissue collection 2 hr): 360 nM | concentration at 0.5 h ([2]; 4 mg/kg, Concentration Brain, Compound A 4 mg/kg PO, 0.5 hr): 235 ng/g | concentration at 2 h ([2]; 4 mg/kg, Concentration Brain, Compound A 4 mg/kg PO, 2 hr): 131 ng/g | concentration at 0.5 h ([2]; 4 mg/kg, Concentration Plasma, Compound A 4 mg/kg PO single dose, tissue collection 0.5 hr): 420 nM | concentration at 2 h ([2]; 4 mg/kg, Concentration Plasma, Compound A 4 mg/kg PO single dose, tissue collection 2 hr): 230 nM | concentration at 0.5 h ([2]; 4 mg/kg, Concentration Plasma, Compound A 4 mg/kg PO, 0.5 hr): 154 ng/mL

From patent publication US20220288057A1, “CONJOINT THERAPY FOR TREATING SEIZURE DISORDERS” (XENON PHARMACEUTICALS INC., priority 2021, published 2022)
